# Experiments:
# [1] = molecular target: T1, MFSD7C-SERCA2b co-localization (Homo sapiens, UniProt Q9UPI3); assay: Confocal co-localization of MFSD7C and SERCA2b in THP-1 cells; format: cell-based; conditions: 40 μM heme 1 hour, 0.89 without heme
# T1 construct: host or cells: THP-1 cells
# Method: FIGS. 16A-16F show Co-localization of MFSD7C and SERCA2b. […] Shown are representative images of THP-1 cells stained for MFSD7C (red), SERCA2b (green), nuclei (blue) and merged image. […] THP-1 cells were not treated or treated with 40 μM of heme for 1 hour and then stained for MFSD7C, SERCA2b and nuclei as in (FIG. 16A). Co-localization between MFSD7C and SERCA2b was quantified. Shown are representative merged images (FIG. 16B) and comparison of Pearson's correlation coefficients values with or without heme treatment (FIG. 16C) (in FIG. 16C, n=7 biologically independent samples). P-values were calculated using unpaired t-test (***p<0.05). […] THP-1 cells were stained for MFSD7C (red), ER (green), mitochondria (blue), and DNA (grey). Shown are representative single and merged images (FIG. 16D). Enlarged image of the boxed area is shown in the last panel (bottom-right). Pearson's rank correlation values between the indicated comparisons are shown (FIG. 16E). (n=3 biologically independent samples). […] THP-1 cells were incubated with FPT for 6 hours, washed, treated with or without 4 μM thapsingargin for 2 hours. The cells were washed and reseeded in poly-lysine coated glass bottom dishes. After cells attached to the glass, medium containing 40 μM heme was added. Cells in the same field were imaged immediately (0 min) and again 1 hour later. […]
# THP-1 cells = assay: Thermogenesis by fluorescent polymeric thermometer (FPT), flow cytometry; format: cell-based, human; conditions: heme treatment for one hour
# Method: (§1) In the second approach, we used fluorescent polymeric thermometer (FPT), which we synthesized in-house (see above). Parental and knockout THP-1 cells were mixed together, washed and incubated with FPT in 5% w/v glucose solution for 6 hrs. The cells were washed with PBS twice and reseeded in dishes with glass bottom that was coated with poly-lysine. The cells were imaged under Confocal Laser-Scanning Microscopy at 37° C. Alternatively, THP-1, MCF7, 293T, 7CKO, SERCA2b^−/− cells were incubated with FPT and control polymer overnight and followed with vehicle or hematin treatment for 1 hour. Then the fluorescence intensities were determined by a flow cytometer.
# SERCA2b = SERCA2b protein level by Western blotting, THP-1 cells; format: cell-based, human; conditions: THP-1 cells following heme treatment vs parental THP-1 cells
# Method: FIGS. 5A-5F show MFSD7C and heme regulate thermogenesis through SERCA2b in THP-1 cells. […] 30 hours later, MG132 was added into half of the cells and the other half was not treated. Another 35 hours later, some cells were treated with 40 μM heme for 1 hour before lysis. Cell lysates were immunoprecipitated with anti-FLAG antibody, and eluted, followed by anti-HA immunoprecipitation and elution. Total cell lysate and elute were subjected to Western blotting and probed with anti-SERCA2b or anti-MFSD7C antibodies. Shown are representative data from one of three experiments. […] 24 hrs later, cells were either not treated or treated with 10 μM MG132 for either 6 or 12 hours. The cells were lysed and subjected to FLAG pull-down and blotted with anti-MFSD7C, anti-SERCA2b and anti-ubiquitin antibodies. Shown are representative data from one of three experiments. […] Parental THP-1 cells were either not treated or treated with heme before lysis. Shown are representative data from one of four experiments. […] Shown are representative data from one of two experiments. […] Cells were washed and treated with 40 μM heme for one hour before flow cytometry. Representative FPT histograms from one of three experiments are shown. […] Shown are representative FPT histograms from one of three experiments.
# Endogenous protein extraction. […]
# 293T cells [2] = assay: Thermogenesis by FPT, parental 293T cells; format: cell-based, human; conditions: heme for 1 hour
# Method: Shown are representative graphs of OCR output of the indicated cells with or without hematin treatment and their responses to oligomycin, FCCP, and rotenone plus antimycin A (FIG. 12B), basal OCR (FIG. 12C), maximal OCR (FIG. 12D), and ECAR (FIG. 12E) from two separate experiments with n=10 biologically independent samples. Data are presented as mean value±standard deviation. Each dot represents one technical replicate. […] Parental and knockout cells were incubated with no probe or FPT for 6 hours, and then washed twice. A portion of FPT-treated cells was treated with heme for 1 hour. FPT fluorescence intensity was quantified by flow cytometry. Shown are representative plots from two separate experiments. P-values were calculated using two-way ANOVA (***p<0.001).
# as §1, with “Alternatively, THP-1, MCF7, 293T, 7CKO, SERCA2b^−/− cells were incubated with FPT and control polymer overnight and followed with vehicle or hematin treatment for 1 hour.” left out
# 293T cells [3] = assay: Oxygen consumption rate, parental 293T cells; format: cell-based, human; conditions: 40 μM heme for 1 hour
# Serca2b^−/− THP-1 cells = assay: Thermogenesis by FPT in Serca2b knockout THP-1 cells; format: cell-based, human; conditions: 40 μM heme 1 hour, FPT flow cytometry
# Method: FIGS. 5A-5F show MFSD7C and heme regulate thermogenesis through SERCA2b in THP-1 cells. […] 30 hours later, MG132 was added into half of the cells and the other half was not treated. Another 35 hours later, some cells were treated with 40 μM heme for 1 hour before lysis. Cell lysates were immunoprecipitated with anti-FLAG antibody, and eluted, followed by anti-HA immunoprecipitation and elution. Total cell lysate and elute were subjected to Western blotting and probed with anti-SERCA2b or anti-MFSD7C antibodies. Shown are representative data from one of three experiments. […] 24 hrs later, cells were either not treated or treated with 10 μM MG132 for either 6 or 12 hours. The cells were lysed and subjected to FLAG pull-down and blotted with anti-MFSD7C, anti-SERCA2b and anti-ubiquitin antibodies. Shown are representative data from one of three experiments. […] Parental THP-1 cells were either not treated or treated with heme before lysis. Shown are representative data from one of four experiments. […] Shown are representative data from one of two experiments. […] Cells were washed and treated with 40 μM heme for one hour before flow cytometry. Representative FPT histograms from one of three experiments are shown. […]
# In the second approach, we used fluorescent polymeric thermometer (FPT), which we synthesized in-house (see above). […] Then the fluorescence intensities were determined by a flow cytometer.
# T1 sequence (Q9UPI3 whole entry): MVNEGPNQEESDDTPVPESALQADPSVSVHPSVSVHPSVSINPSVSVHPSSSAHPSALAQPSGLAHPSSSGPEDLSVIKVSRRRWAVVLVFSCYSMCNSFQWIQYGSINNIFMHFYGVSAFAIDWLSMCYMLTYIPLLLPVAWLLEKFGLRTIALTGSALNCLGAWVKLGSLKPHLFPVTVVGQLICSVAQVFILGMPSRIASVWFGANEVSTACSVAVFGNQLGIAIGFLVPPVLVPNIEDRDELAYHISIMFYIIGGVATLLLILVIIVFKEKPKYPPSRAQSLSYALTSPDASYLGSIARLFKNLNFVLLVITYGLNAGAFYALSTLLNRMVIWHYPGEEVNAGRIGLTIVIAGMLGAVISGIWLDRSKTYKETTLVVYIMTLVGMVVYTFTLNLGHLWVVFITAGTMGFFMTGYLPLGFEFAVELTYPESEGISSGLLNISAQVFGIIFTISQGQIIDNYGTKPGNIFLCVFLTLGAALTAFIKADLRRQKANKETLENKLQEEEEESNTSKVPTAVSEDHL
structure (smiles),measurement,setting,value
C=CC1=C(C)c2cc3[n-]c(cc4[n-]c(cc5nc(cc1n2)C(C)=C5C=C)c(C)c4CCC(=O)O)c(CCC(=O)O)c3C.[Fe+2] [heme],Pearson's correlation coefficient value of MFSD7C/SERCA2b co-localization,[1],0.67
same,FPT fluorescence by flow cytometry,THP-1 cells,almost all cells had dramatically increased fluorescence
same,SERCA2b level,SERCA2b,significantly higher
same,FTP intensity,293T cells [2],significantly stimulated
same,OCR,293T cells [3],significantly stimulated
same,thermogenesis following heme treatment,Serca2b^−/− THP-1 cells,significantly diminished

# Reference: patent US20230313199A1, “TARGET FOR MODULATING BODY MASS” (Massachusetts Institute of Technology, priority 2020, published 2023)
